target: Glutamate receptor ionotropic, NMDA 1 (Rattus norvegicus, UniProt P35439)

SMILES	Ki
CNC(C(=O)O)c1c(C)o[nH]c1=O (configuration not stated)	> 10 µM
O=C(O)C1NCCc2o[nH]c(=O)c21 (configuration not stated) [CAS_129091]	> 10 µM
Cc1o[nH]c(=O)c1C(C(=O)O)N(C)C (configuration not stated) [N,N-dimethyl-AMAA]	> 10 µM
O=C(O)c1cccnc1C(=O)O [pyridine-2,3-dicarboxylic acid]	> 10 µM

target: Glutamate receptor 3 (Rattus norvegicus, UniProt P19492)
Sequence (P19492 whole entry): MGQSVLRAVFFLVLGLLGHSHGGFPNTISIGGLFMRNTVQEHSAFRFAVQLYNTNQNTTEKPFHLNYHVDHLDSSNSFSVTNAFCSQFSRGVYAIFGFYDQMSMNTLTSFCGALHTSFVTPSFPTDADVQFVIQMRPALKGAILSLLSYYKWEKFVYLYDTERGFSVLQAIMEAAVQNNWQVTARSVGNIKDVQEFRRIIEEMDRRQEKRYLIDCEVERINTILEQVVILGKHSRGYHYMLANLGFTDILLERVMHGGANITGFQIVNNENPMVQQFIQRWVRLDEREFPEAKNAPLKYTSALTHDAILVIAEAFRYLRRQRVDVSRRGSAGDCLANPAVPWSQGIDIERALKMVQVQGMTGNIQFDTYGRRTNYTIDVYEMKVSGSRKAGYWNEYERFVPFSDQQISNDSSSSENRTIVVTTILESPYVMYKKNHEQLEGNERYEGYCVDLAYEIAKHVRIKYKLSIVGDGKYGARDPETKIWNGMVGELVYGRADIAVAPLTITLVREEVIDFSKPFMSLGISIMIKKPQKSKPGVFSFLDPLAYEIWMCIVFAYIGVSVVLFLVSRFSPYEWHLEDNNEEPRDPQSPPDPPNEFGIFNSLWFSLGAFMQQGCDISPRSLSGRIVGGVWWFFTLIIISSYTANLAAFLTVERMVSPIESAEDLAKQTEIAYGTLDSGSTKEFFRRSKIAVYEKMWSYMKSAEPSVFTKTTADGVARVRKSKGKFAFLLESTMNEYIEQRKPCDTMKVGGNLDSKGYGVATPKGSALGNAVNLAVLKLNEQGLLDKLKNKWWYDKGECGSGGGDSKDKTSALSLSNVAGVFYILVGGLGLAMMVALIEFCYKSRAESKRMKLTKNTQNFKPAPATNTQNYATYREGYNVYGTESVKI

SMILES	Ki
O=C(O)C1NCCc2o[nH]c(=O)c21 (configuration not stated) [CAS_129091]	> 10 µM
Cc1o[nH]c(=O)c1CC(C(=O)O)N(C)C (configuration not stated) [N,N-dimethyl-AMPA]	> 10 µM
CNC(Cc1c(C)o[nH]c1=O)C(=O)O (configuration not stated) [N-methyl-AMPA]	> 10 µM

From BindingDB's records for doi:10.1016/0922-4106(90)90035-v (Royal Danish School of Pharmacy, 1990)
